What was measured:
GIST = settings: 345 patients, 400 mg/day, cited from earlier work
advanced GIST = settings: cited from earlier work
[1] = molecular target: c-Kit gain-of-function mutant V559D (exon 11) (Homo sapiens, UniProt P10721, V559D); settings: in vitro; cited from earlier work

SMILES	melting point [°C]	further results
Cc1ccc(NC(=O)Nc2ccccc2F)cc1Nc1nc(-c2cccnc2)cs1 [Compound 023, 1-(2-Fluoro-phenyl)-3-[4-methyl-3-(4-pyridin-3-yl-thiazol-2-ylamino)-phenyl]-urea]	203 to 206	–
Cc1ccc(NC(=O)Nc2cccc(F)c2)cc1Nc1nc(-c2cccnc2)cs1 [Compound 025, 1-(3-Fluoro-phenyl)-3-[4-methyl-3-(4-pyridin-3-yl-thiazol-2-ylamino)-phenyl]-urea]	210 to 215	–
Cc1ccc(NC(=O)Nc2ccc(C)c(Nc3nc(-c4cccnc4)cs3)c2)cc1 [Compound 026, 1-[4-Methyl-3-(4-pyridin-3-yl-thiazol-2-ylamino)-phenyl]-3-p-tolyl-urea]	238 to 240	–
Cc1ccc(NC(=O)c2ccc(NS(=O)(=O)c3cccs3)cc2)cc1Nc1nc(-c2cccnc2)cs1 [Compound 044, N-[4-Methyl-3-(4-pyridin-3-yl-thiazol-2-ylamino)-phenyl]-4-(thiophene-2-sulfonylamino)-benzamide]	230 to 233	–
Cc1ccc(NC(=O)c2cccc(F)c2)cc1Nc1nc(-c2cccnc2)cs1 [Compound 045, 3-Fluoro-N-[4-methyl-3-(4-pyridin-3-yl-thiazol-2-ylamino)-phenyl]-benzamide]	184 to 186	–
Cc1ccc(NC(=O)c2ccc(-c3ccncc3)cc2)cc1Nc1nc(-c2cccnc2)cs1 [Compound 046, N-[4-Methyl-3-(4-pyridin-3-yl-thiazol-2-ylamino)-phenyl]-4-pyridin-4-yl-benzamide]	254 to 256	–
Cc1ccc(NC(=O)c2ccc(N(C)C)cc2)cc1Nc1nc(-c2cccnc2)cs1 [Compound 047, 4-Dimethylamino-N-[4-methyl-3-(4-pyridin-3-yl-thiazol-2-ylamino)-phenyl]-benzamide]	147 to 150	–
Cc1ccc(F)c(C(=O)Nc2ccc(C)c(Nc3nc(-c4cccnc4)cs3)c2)c1 [Compound 048, 2-Fluoro-5-methyl-N-[4-methyl-3-(4-pyridin-3-yl-thiazol-2-ylamino)-phenyl]-benzamide]	103 to 106	–
Cc1ccc(NC(=O)c2ccc(C(C)(C)C)cc2)cc1Nc1nc(-c2cccnc2)cs1 [Compound 049, 4-tert-Butyl-N-[4-methyl-3-(4-pyridin-3-yl-thiazol-2-ylamino)-phenyl]-benzamide]	145 to 150	–
Cc1ccc(NC(=O)c2cccc(OCCN3CCOCC3)c2)cc1Nc1nc(-c2cccnc2)cs1 [Compound 052, N-[4-Methyl-3-(4-pyridin-3-yl-thiazol-2-ylamino)-phenyl]-3-(2-morpholin-4-yl-ethoxy)-benzamide]	75 to 80	–
COc1cccc(C(=O)Nc2ccc(C)c(Nc3nc(-c4cccnc4)cs3)c2)c1 [Compound 059]	76 to 79	–
Cc1ccc(NC(=O)c2cccc(N(C)C)c2)cc1Nc1nc(-c2cccnc2)cs1 [Compound 088, 3-Dimethylamino-N-[4-methyl-3-(4-pyridin-3-yl-thiazol-2-ylamino)-phenyl]-benzamide]	197 to 198	–
Cc1ccc(NC(=O)c2cccc(N3CCOCC3)c2)cc1Nc1nc(-c2cccnc2)cs1 [Compound 090, N-[4-Methyl-3-(4-pyridin-3-yl-thiazol-2-ylamino)-phenyl]-3-morpholin-4-yl-benzamide]	247 to 248	–
Cc1ccc(NC(=O)CCCN2CCOCC2)cc1Nc1nc(-c2cccnc2)cs1 [Compound 096, N-[4-Methyl-3-(4-pyridin-3-yl-thiazol-2-ylamino)-phenyl]-4-morpholin-4-yl-butyramide]	116 to 120	–
Cc1ccc(NC(=O)c2ccc(CN3CCN(C)CC3)cc2)cc1Nc1nccc(-c2cccnc2)n1 [imatinib]	–	median PFS (GIST; 95% CI [16-21]): 18 months; 2-year PFS rate (GIST; 95% CI [36-47]): 46%; Median overall survival (OS) (GIST; 95% CI [47-62]): 55 months; 2-year survival (GIST; 95% CI [67-77]): 72%; 3-year survival (GIST): ~61%; 2-year survival rate of patients with advanced GIST (advanced GIST; after introduction of imatinib (pre-imatinib 25%)): about 70%; early resistance (progression within the first 6 months, no response), patients (advanced GIST; in vivo): 10-15%
CS(=O)(=O)O.CS(=O)(=O)O.Cc1ccc(NC(=O)c2ccc(CN3CCN(C)CC3)cc2)cc1Nc1nc(-c2cccnc2)cs1 [masitinib mesilate, 4-(4-methylpiperazin-1-ylmethyl)-N-[4-methyl-3-(4-pyridin-3ylthiazol-2-ylamino)phenyl]benzamide-mesylate methane sulfonic acid salt]	–	inhibition of c-Kit mutant V559D (exon 11) [1]: potently inhibits

Reference: patent US20110201620A1, “2-(3-AMINOARYL) AMINO-4-ARYL-THIAZOLES AND THEIR USE AS C-KIT INHIBITORS” (AB SCIENCE, priority 2002, published 2011)
